From patent US20200155503A1, “COMPOSITIONS FOR USE FOR TREATING CUTANEOUS LEISHMANIASIS” (BIONOOX SA, priority 2017, published 2020)
Where two headings read alike, the source gives them in different places.

Legend:
Leishmania parasites = test: Individual evaluation against Leishmania parasites; conditions: evaluated individually
Neutrophil = Neutrophil cell viability by flow cytometry with DAPI staining; format: cell-based
Experimental: Neutrophil cell viability was assessed by flow cytometry with DAPI staining pas 24 hours incubation with dihydroquercetin (5, 15 and 25 μM), 3-(2-chloroacetamido) ethyl benzoate (1, 2 and 4 μM) and bisabolol (0.05, 0.1 and 0.5% w/v).

Leishmania major mCherry = test: Parasite killing in bone marrow-derived macrophages infected with Leishmania major mCherry (flow cytometry, microscopy); format: cell-based; conditions: for macrophage mediated parasite killing: BMDM infected with L. major mCherry, compounds tested individually
Experimental: The direct microbicidal effect of compounds against the Leishmania parasites in infected macrophages and neutrophils was evaluated.
Bone marrow-derived macrophages (BMDM) were cultured for 7 days, harvested and infected with Leishmania major mCherry for 2 hrs. Then the non-phagocytosed parasites were washed and dihydroquercetin, 3-(2-chloroacetamido) ethyl benzoate or bisabolol were added at different concentrations and incubated at different time points. • Parasites killing was evaluated by flow cytometry and microscopy. • NO production was assessed by Griess reaction from the supernatants.

[1] = tested on: Neutrophils infected with L. major mCherry; test: ROS production by neutrophils infected with L. major mCherry (Luminol); format: cell-based; conditions: MOI 1:10, Luminol for 90 min
Experimental: Neutrophils were isolated by Magnetic-activated cell sorting (MACS) and infected with L. major mCherry at a multiplicity of infection ratio (MOI) of 1:10.
Dihydroquercetin, […] ethyl benzoate or bisabolol at different concentrations were added and stimulated for 24 hours.
Kinetic of ROS production was measured by Luminol for 90 min.

SMILES | effect against Leishmania parasites (Leishmania parasites) | cytotoxicity (neutrophil cell viability) (Neutrophil; 24 hours incubation, 5, 15 and 25 μM) | macrophage mediated parasite killing (Leishmania major mCherry) | neutrophil viability (Neutrophil; 24 hours incubation, 1, 2 and 4 μM) | ROS production [1] | direct microbicidal effect against L. major (Leishmania major mCherry; infected macrophages and neutrophils, different concentrations) | cytotoxicity (neutrophil cell viability) (Neutrophil)
Cc1c(C)c2c(c(C)c1O)CC[C@@](C)(CCC[C@H](C)CCC[C@H](C)CCCC(C)C)O2 [alpha-tocopherol, (2R)-2,5,7,8-Tetramethyl-2-[(4R,8R)-(4,8,12-trimethyltridecyl)]-6-chromanol] | no or limited effect | – | – | – | – | – | –
O=C1c2c(O)cc(O)cc2OC(c2ccc(O)c(O)c2)C1O (stereo not shown) [Dihydroquercetin] | no or limited effect | no cytotoxicity | no impact on macrophage mediated parasite killing | – | – | – | –
CCOC(=O)c1cccc(NC(=O)CCl)c1 [3-(2-chloroacetamido) ethyl benzoate] | – | – | – | induced a reduction in neutrophil viability | decrease in ROS production | had a direct microbicidal effect against L. major | –
CC(C)=CCCC(C)(O)C1CC=C(C)CC1 (stereo not shown) [bisabolol, 6-methyl-2-(4-methyl-3-cyclohexen-1-yl)-5-hepten-2-ol] | no or limited effect | – | no impact on macrophage mediated parasite killing | – | – | – | no cytotoxicity
